Measurements as given in article PMC8508785, “Synthesis and In Silico Docking of New Pyrazolo[4,3-e]pyrido[1,2-a]pyrimidine-based Cytotoxic Agents” (International Journal of Molecular Sciences, 2021).

What was measured:
[1] = system: NIH 3T3 non-malignant mouse embryonic fibroblasts; experiment: SRB cytotoxicity assay, NIH 3T3; type: cell-based; conditions: NIH3T3, 72 h of treatment, non-malignant NIH 3T3
Description: (§1) The synthesized compounds were evaluated for their cytotoxic activity by a photometric […] (SRB) on different human cancer cell lines, malignant melanoma (A375), colon (HT29), breast (MCF-7), human ovarian carcinoma (A2780) and pharynx carcinoma (FaDu); for comparison, non-malignant mouse embryonic fibroblasts (NIH 3T3) and human embryonic kidney cells (HEK293) were included; doxorubicin (DX) was used as a positive control.
(§2) The cell lines were obtained from Department of oncology (MartinLutherUniversity Halle-Wittenberg). Cultures were maintained as monolayers in RPMI 1640 medium with L-glutamine (Capricorn Scientific GmbH, Ebsdorfergrund, Germany) supplemented with 10% heat-inactivated fetal bovine serum (Sigma-Aldrich Chemie GmbH, Steinheim, Germany) and penicillin/streptomycin (1%, Capricorn Scientific GmbH, Ebsdorfergrund, Germany) at 37 °C in a humidified atmosphere with 5% CO2.
(§3) The cytotoxicity of the compounds was evaluated using the sulforhodamine-B (Kiton-Red S, ABCR: Karlsruhe, Germany) microculture colorimetric assay using […] cells in 96-well plates with the seeding of the cells on day 0,by applying appropriate cell densities to prevent confluence of the cells during the period of the experiment. On day 1, the cells were treated with six different concentrations (1, 3, 7, 12, 20 and 30 μM); thereby, the final concentration of DMSO was always <0.5%, generally regarded as non-toxic to the cells. On day 4, the supernatant medium was discarded; the cells were fixed with 10% trichloroacetic acid. After another day at 4 °C, the cells were washed in a strip washer and dyed with the SRB solution (100 μL, 0.4% in 1% acetic acid) for about 20 min to be followed by washing of the plates (four times, 1% acetic acid) and air-drying overnight. Furthermore, Tris base solution (200 μL, 10 mM) was added to each well, and absorbance was measured at λ = 570 nm employing a reader (96 wells, Tecan Spectra, Crailsheim, Germany). The EC50 values were averaged from three independent experiments performed each in triplicate, calculated from semi-logarithmic dose–response curves applying a non-linear four-parameter Hill-slope equation (GraphPad Prism5 vom Graphpad Software Inc., San Diego, USA; the variables top and bottom were set to 100 and 0, respectively).

[2] = system: HEK293 human embryonic kidney cells; experiment: SRB cytotoxicity assay, HEK293; type: cell-based; conditions: 72 h of treatment, non-malignant HEK293
Description: as §1, §2, §3

[3] = system: HT29 cells (colon); experiment: SRB cytotoxicity assay, HT29; type: cell-based; conditions: Homo sapiens, HT-29, 72 h of treatment
Description: as §1, §2, §3

[4] = system: MCF-7 cells (breast); experiment: SRB cytotoxicity assay, MCF-7; type: cell-based; conditions: Homo sapiens, MCF7, 72 h of treatment
Description: as §1, §2, §3

[5] = system: FaDu cells (pharynx carcinoma); experiment: SRB cytotoxicity assay, FaDu; type: cell-based; conditions: Homo sapiens, 72 h of treatment
Description: as §1, §2, §3

[6] = system: A2780 cells (human ovarian carcinoma); experiment: SRB cytotoxicity assay, A2780; type: cell-based; conditions: 72 h of treatment
Description: as §1, §2, §3

[7] = system: A375 cells (malignant melanoma); experiment: SRB cytotoxicity assay, A375; type: cell-based; conditions: Homo sapiens, A-375, 72 h of treatment
Description: as §1, §2, §3

[8] = system: human tumor cell lines A375, HT29, MCF7, A2780, FaDu; experiment: SRB cytotoxicity assay, panel of human tumor cell lines; type: cell-based; conditions: one statement for several/all five cancer cell lines, read-out: EC50 across the cancer cell lines
Description: as §1, §2
as §3, with “After another day at 4 °C, the cells were washed in a strip washer and dyed with the SRB solution (100 μL, 0.4% in 1% acetic acid) for about 20 min to be followed by washing of the plates (four times, 1% acetic acid) and air-drying overnight.” left out

| Compound | EC50 [1] | EC50 [2] | EC50 [3] | EC50 [4] | EC50 [5] | EC50 [6] | EC50 [7] | melting point | EC50 [8] |
| --- | --- | --- | --- | --- | --- | --- | --- | --- | --- |
| CC(=O)C1=C(C)N2C(=C(C#N)C1c1ccc(F)cc1)N=C(N)c1c(C)nn(-c3ccccc3)c12 (stereo not shown) [Compound 7f, 8-Acetyl-4-amino-7-(4-fluorophenyl)-3,9-dimethyl-1-phenyl-1,7-sihydropyrazolo[4,3-e] Pyrido[1,2-a]pyrimidine-6-carbonitrile] | 24.1 ± 2.8 µM | 14.7 ± 1.4 µM | 24.7 ± 4.4 µM | 19.2 ± 1.3 µM | > 30 µM | 19.2 ± 3.9 µM | 18.1 ± 3.3 µM | 259 °C |  |
| CC(=O)C1=C(C)N2C(=C(C#N)C1c1ccc(Br)cc1)N=C(N)c1c(C)nn(-c3ccccc3)c12 (stereo not shown) [Compound 7e, 8-Acetyl-4-amino-7-(4-bromophenyl)-3,9-dimethyl-1-phenyl-1,7-dihydropyrazolo[4,3-e] Pyrido[1,2-a]pyrimidine-6-carbonitrile] | 12.3 ± 0.7 µM | 6.6 ± 0.6 µM | 13.3 ± 1.8 µM | 9.2 ± 0.7 µM | 13.5 ± 1.5 µM | 9.1 ± 1.6 µM | 9.4 ± 1.2 µM | 192 °C | 9.1 to 13.5 µM |
| CC(=O)C1=C(C)N2C(=C(C#N)C1c1ccc([N+](=O)[O-])cc1)N=C(N)c1c(C)nn(-c3ccccc3)c12 (stereo not shown) [Compound 7g, 8-Acetyl-4-amino-3,9-dimethyl-7-(4-nitrophenyl)-1-phenyl-1,7-dihydropyrazolo[4,3-e] Pyrido[1,2-a]pyrimidine-6-carbonitrile] | > 30 µM | 17 ± 1.3 µM | 25.9 ± 3.4 µM | 15.7 ± 2.2 µM | > 30 µM | 14.5 ± 2.2 µM | 16.2 ± 2 µM | 164 °C |  |
| CC(=O)/C=C(\C)Nc1c(C#N)c(C)nn1-c1ccccc1 [Compound 5, 3-Methyl-5-{[(1E)-1-methyl-3-oxobut-1-en-1-yl]amino}-1-phenyl-1H-pyrazole-4-carbonitrile] | > 30 µM | > 30 µM | > 30 µM | > 30 µM | > 30 µM | > 30 µM | > 30 µM | 109 °C | > 30 µM |
| COc1cccc2c1C(=O)c1c(O)c3c(c(O)c1C2=O)C[C@@](O)(C(=O)CO)C[C@@H]3O[C@H]1C[C@H](N)[C@H](O)[C@H](C)O1 [DX, doxorubicin, reference compound] | 0.4 ± 0.07 µM |  | 0.9 ± 0.01 µM | 1.1 ± 0.3 µM |  | 0.01 ± 0.01 µM |  |  |  |
| CC(=O)C1=C(C)N2C(=C(C#N)C1c1ccc([N+](=O)[O-])s1)N=C(N)c1c(C)nn(-c3ccccc3)c12 (stereo not shown) [Compound 7j, 8-Acetyl-4-amino-3,9-dimethyl-7-(5-nitro-2-thienyl)-1-phenyl-1,7-dihydropyrazolo[4,3-e] Pyrido[1,2-a]pyrimidine-6-carbonitrile] |  |  |  |  |  |  |  | 262 °C |  |
| CC(=O)C1=C(C)N2C(=C(C#N)C1c1ccc3ccccc3c1)N=C(N)c1c(C)nn(-c3ccccc3)c12 (stereo not shown) [Compound 7k, 8-Acetyl-4-amino-3,9-dimethyl-7-(2-naphthyl)-1-phenyl-1,7-dihydropyrazolo[4,3-e] Pyrido[1,2-a]pyrimidine-6-carbonitrile] |  |  |  |  |  |  |  | 270 °C |  |
| CC(=O)C1=C(C)N2C(=C(C#N)C1c1ccc(Cl)cc1)N=C(N)c1c(C)nn(-c3ccccc3)c12 (stereo not shown) [Compound 7a, 8-Acetyl-4-amino-7-(4-chlorophenyl)-3,9-dimethyl-1-phenyl-1,7-dihydropyrazolo[4,3-e] Pyrido[1,2-a]pyrimidine-6-carbonitrile] | 23 ± 1.4 µM | 15.8 ± 2 µM | 29.9 ± 1.4 µM | 17.2 ± 1.4 µM | > 30 µM | 18 ± 3 µM | 19.3 ± 3 µM | 167 °C |  |
| CC(=O)C1=C(C)N2C(=C(C#N)C1c1ccc(C)cc1)N=C(N)c1c(C)nn(-c3ccccc3)c12 (stereo not shown) [Compound 7b] | 21.3 ± 0.9 µM | 12.4 ± 0.9 µM | 17.5 ± 1.8 µM | 12.2 ± 1.3 µM | 22.3 ± 2.7 µM | 14.6 ± 2.2 µM | 12.9 ± 1.6 µM | 167 °C |  |
| CC(=O)C1=C(C)N2C(=C(C#N)C1c1ccc(Cl)c(Cl)c1)N=C(N)c1c(C)nn(-c3ccccc3)c12 (stereo not shown) [Compound 7i, 8-Acetyl-4-amino-7-(3,4-dichlorophenyl)-3,9-dimethyl-1-phenyl-1,7-dihydropyrazolo[4,3-e] Pyrido[1,2-a]pyrimidine-6-carbonitrile] |  |  |  |  |  |  |  | 235 °C |  |
| CC(=O)C1=C(C)N2C(=C(C#N)C1c1ccccc1)N=C(N)c1c(C)nn(-c3ccccc3)c12 (stereo not shown) [Compound 7c, 8-Acetyl-4-amino-3,9-dimethyl-1,7-diphenyl-1,7-dihydropyrazolo[4,3-e]Pyrido[1,2-a]pyrimidine-6-carbonitrile] | > 30 µM | 7.7 ± 1.1 µM | > 30 µM | 19.5 ± 1.1 µM | > 30 µM | 25.4 ± 2.5 µM | 19.3 ± 3.8 µM | 198 °C |  |
| COc1ccc(C2C(C#N)=C3N=C(N)c4c(C)nn(-c5ccccc5)c4N3C(C)=C2C(C)=O)cc1OC (stereo not shown) [Compound 7h, 8-Acetyl-4-amino-7-(3,4-dimethoxyphenyl)-3,9-dimethyl-1-phenyl-1,7-dihydropyrazolo[4,3-e] Pyrido[1,2-a]pyrimidine-6-carbonitrile] | > 30 µM | 24 ± 3.4 µM | > 30 µM | 25.1 ± 2.8 µM | > 30 µM | 27.5 ± 8.1 µM | 22.1 ± 4.9 µM | 260 °C |  |
| Cc1nn(-c2ccccc2)c(N)c1C#N [Compound 3, 5-Amino-3-methyl-1-phenyl-1H-pyrazole-4-carbonitrile] | > 30 µM | > 30 µM | > 30 µM | > 30 µM | > 30 µM | > 30 µM | > 30 µM | 132 °C | > 30 µM |
| COc1ccc(C2C(C#N)=C3N=C(N)c4c(C)nn(-c5ccccc5)c4N3C(C)=C2C(C)=O)cc1 (stereo not shown) [Compound 7d, 8-Acetyl-4-Amino-7-(4-methoxyphenyl)-3,9-dimethyl-1-phenyl-1,7-dihydropyrazolo[4,3-e] Pyrido[1,2-a]pyrimidine-6-carbonitrile] | > 30 µM | 16.7 ± 1.2 µM | 28.3 ± 3.5 µM | 18.4 ± 2.3 µM | > 30 µM | 21.7 ± 3.9 µM | 21.5 ± 3.6 µM | 160 °C |  |
| CC(=O)C1=C(C)N2C(=C(C#N)C1c1cccnc1)N=C(N)c1c(C)nn(-c3ccccc3)c12 (stereo not shown) [Compound 7l, 8-Acetyl-4-amino-3,9-dimethyl-1-phenyl-7-pyridin-3-yl-1,7-dihydropyrazolo[4,3-e] Pyrido[1,2-a]pyrimidine-6-carbonitrile] |  |  |  |  |  |  |  | 306 °C |  |
